Test results: patent US20210330611A1, “THERAPY FOR NEUROLOGICAL DISEASES/DISORDERS” (priority 2020, published 2021)
pIC50: −log10 of the molar value. Counter-ions that a name gives are not always drawn. Like-named read-outs stand apart in the source and are kept apart here.

What was measured:
[1] = in vitro; details: rat
[2] = system: LPS-induced microglia activation; experiment: Image-based assay of LPS-induced microglia activation (HTS and dose response); format: cell-based, rat; details: Rattus norvegicus, Microglia; for inhibition at 10 µM: read-out: LPS % inhibition; for pIC50: read-out: LPS IC50
[3] = system: primary rat microglia; details: rat
[4] = system: fibrin-induced microglia activation; experiment: Image-based assay of fibrin-induced microglia activation (HTS and dose response); format: cell-based, rat; details: for pIC50 / inhibition at 10 µM / IC50: Rattus norvegicus, Microglia; for pIC50: read-out: Fibrin IC50; for inhibition at 10 µM: read-out: Fibrin % inhibition
[5] = system: fibrin- and LPS-induced microglia activation; experiment: cells; format: cell-based, rat; details: for inhibition at 10 µM: Rattus norvegicus
[6] = in vitro; details: rat, Cell Toxicity IC50 (uM) [cFib assay]
[7] = system: primary rat microglia; details: rat; remark: listed apart in the source
[8] = read-out: LPS IC50 (uM) (Suppl. Table 7)
[9] = read-out: Fibrin IC50 (uM) (Suppl. Table 7)
[10] = Microglia, read-out: Cherry-picked Hit (Suppl. Table 7)
[11] = 48 h, Table 1, dose response 0.001-20 μM, triplicates, primary rat microglia, 48 h
[12] = 48 h, primary microglia HTS, LPS stimulation, increased cell size (>800 μm^2) as marker of activation
[13] = LPS-induced microglia activation, dose response, read-out: LPS IC50 (uM) (Suppl. Table 7)
[14] = dose response, LPS-induced microglia activation
[15] = dose response, fibrin-induced microglia activation
[16] = fibrin-induced microglia activation, dose response, read-out: Fibrin IC50 (uM) (Suppl. Table 7)
[17] = primary microglia HTS, fibrin stimulation, increased cell size (>800 μm^2) as marker of activation
[18] = HTS of 1907 compounds, quadrant by fibrin and LPS inhibition
[19] = Microglia, HTS hit classification, read-out: Hit
[20] = hit classification in microglia HTS, read-out: Cherry-picked Hit (Suppl. Table 7)
[21] = quadrant by fibrin and LPS inhibition in HTS of 1907 compounds
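For Fibrin % cell toxicity in this document: share of dead cells sized under 150 µm2 at 10 µM in fibrin-stimulated microglia HTS.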

| SMILES | pIC50 [1] | pIC50 ([2]; 48 h) | IC50 ([2]; read-out: LPS IC50 (uM)) [µM] | IC50 [2, 8] [µM] | Fibrin % cell toxicity [3] [%] | pIC50 ([4]; 48 h) | IC50 [6] [µM] | LPS % cell toxicity [7] [%] | pIC50 [2, 11] | inhibition at 10 µM [2, 12] [%] | IC50 [2, 13] [µM] | pIC50 [2, 14] | pIC50 [4, 11] | pIC50 [4, 15] | IC50 [4, 16] [µM] | inhibition at 10 µM [4, 17] [%] | Quadrant (FIG. 5b) [5, 18] | inhibition at 10 µM [5, 19] [%] | Quadrant (FIG. 5b) ([5]; Table 1, screen at 10 μM) | Quadrant (FIG. 5b) [5, 21] | further results |
| --- | --- | --- | --- | --- | --- | --- | --- | --- | --- | --- | --- | --- | --- | --- | --- | --- | --- | --- | --- | --- | --- |
| CCCSc1ccc2nc(NC(=O)OC)[nH]c2c1 [Albendazole, reference compound] | < 4.70 | 5.22 | 6 | 6 | 1 | 5.40 | > 20 | 1 |  |  |  |  |  |  |  |  |  |  |  |  | inhibition at 10 µM ([2]; 48 h): 16%; Fibrin Selectivity [4]: 2; Fibrin Selectivity (LOG10) [4]: 0.22; inhibition at 10 µM [4]: 64%; IC50 ([4]; read-out: Fibrin IC50 (uM)): 4 µM; IC50 [4, 9]: 4 µM; Quadrant (FIG. 5b) [5]: Q3; inhibition at 10 µM [5, 10]: > 50%; inhibition at 10 µM ([5]; Microglia, read-out: Hit): > 50% |
| COc1ccc(OC)c(C(O)CNC(=O)CN)c1 (centres unmarked) [Midodrine hydrochloride, reference compound] | < 4.70 | < 4.70 | > 20 | > 20 | 3 | < 4.70 | > 20 | 1 |  |  |  |  |  |  |  |  |  |  |  |  | inhibition at 10 µM ([2]; 48 h): 52%; inhibition at 10 µM [4]: 95%; IC50 ([4]; read-out: Fibrin IC50 (uM)): > 20 µM; IC50 [4, 9]: > 20 µM; Quadrant (FIG. 5b) [5]: Q2; inhibition at 10 µM [5, 10]: > 50%; inhibition at 10 µM ([5]; Microglia, read-out: Hit): > 50% |
| CO[C@H]1C[C@H](O[C@@H]2/C(C)=C/C[C@@H]3C[C@@H](C[C@]4(CC[C@H](C)[C@@H](C5CCCCC5)O4)O3)OC(=O)[C@@H]3C=C(C)/C(=N/O)[C@H]4OC/C(=C\C=C\[C@@H]2C)[C@]43O)O[C@@H](C)[C@@H]1O [Selamectin, reference compound] | < 4.70 | < 4.70 | > 20 | > 20 | 1 | 5.22 | > 20 | 1 |  |  |  |  |  |  |  |  |  |  |  |  | inhibition at 10 µM ([2]; 48 h): 42%; Fibrin Selectivity [4]: 3; Fibrin Selectivity (LOG10) [4]: 0.51; inhibition at 10 µM [4]: 51%; IC50 ([4]; read-out: Fibrin IC50 (uM)): 6 µM; IC50 [4, 9]: 6 µM; Quadrant (FIG. 5b) [5]: Q3; inhibition at 10 µM [5, 10]: > 50%; inhibition at 10 µM ([5]; Microglia, read-out: Hit): > 50% |
| C[C@@H](O)[C@H]1C(=O)N2C(C(=O)O)=C(SCCN=CN)C[C@H]12 [Imipenem, reference compound] | < 4.70 | < 4.70 | > 20 | > 20 | 1 | < 4.70 | > 20 | 0 |  |  |  |  |  |  |  |  |  |  |  |  | IC50 ([4]; read-out: Fibrin IC50 (uM)): > 20 µM; IC50 [4, 9]: > 20 µM; Quadrant (FIG. 5b) [5]: Q3; inhibition at 10 µM [5, 10]: > 50%; inhibition at 10 µM ([5]; Microglia, read-out: Hit): > 50% |
| C1CCC(C(CC2CCCCN2)C2CCCCC2)CC1 (centres unmarked) [Perhexiline maleate, reference compound] | 4.96 |  |  |  | 3 |  |  | 69 | 5.52 | 123 | 3 | 5.52 | 5.10 | 5.10 | 8 | 99 | Q2 | > 50 | Q2 | Q2 | inhibition at 10 µM [5, 20]: > 50%; IC50 ([6]; cFib assay): 20 µM |
| OCc1cc(C(O)CNCCCCCCOCCCCc2ccccc2)ccc1O (centres unmarked) [Salmeterol, reference compound] | < 4.70 | 4.85 | 14 | 14 | 1 | 6.00 | > 20 | 1 |  |  |  |  |  |  |  |  |  |  |  |  | inhibition at 10 µM ([2]; 48 h): 29%; Fibrin Selectivity [4]: 10; Fibrin Selectivity (LOG10) [4]: 1.02; inhibition at 10 µM [4]: 56%; IC50 ([4]; read-out: Fibrin IC50 (uM)): 1 µM; IC50 [4, 9]: 1 µM; Quadrant (FIG. 5b) [5]: Q3; inhibition at 10 µM [5, 10]: > 50%; inhibition at 10 µM ([5]; Microglia, read-out: Hit): > 50% |
| CC(CN(C)C)CN1c2ccccc2CCc2ccccc21 (centres unmarked) [Trimipramine maleate, reference compound] | 4.92 |  |  |  | 1 |  |  | 5 | 5.30 | 92 | 5 | 5.30 | 5.15 | 5.15 | 7 | 52 | Q2 | > 50 | Q2 | Q2 | inhibition at 10 µM [5, 20]: > 50%; IC50 ([6]; cFib assay): > 20 µM |
| O=c1[nH]c2ccccc2n1C1CCN(CCCC(c2ccc(F)cc2)c2ccc(F)cc2)CC1 [Pimozide, reference compound] | < 4.70 |  |  |  | 2 |  |  | 0 | 4.74 | 45 | 18 | 4.74 | < 4.70 | < 4.70 | > 20 | 70 | Q3 | > 50 | Q3 | Q3 | inhibition at 10 µM [5, 20]: > 50%; IC50 ([6]; cFib assay): > 20 µM |
| O=C1NC(=O)C(c2ccccc2)(c2ccccc2)N1 [Phenytoin sodium, reference compound] | < 4.70 |  |  |  | 1 |  |  | 1 | < 4.70 | 63 | > 20 | < 4.70 | < 4.70 | < 4.70 | > 20 | 82 | Q2 | > 50 | Q2 | Q2 | inhibition at 10 µM [5, 20]: > 50%; IC50 ([6]; cFib assay): > 20 µM |
| CC(C)(C)NC(=O)[C@@H]1C[C@@H]2CCCC[C@@H]2CN1C[C@@H](O)[C@H](Cc1ccccc1)NC(=O)[C@H](CC(N)=O)NC(=O)c1ccc2ccccc2n1 [Saquinavir, reference compound] | < 4.70 |  |  |  | 1 |  |  | 1 | < 4.70 | 56 | > 20 | < 4.70 | < 4.70 | < 4.70 | > 20 | 51 | Q2 | > 50 | Q2 | Q2 | inhibition at 10 µM [5, 20]: > 50%; IC50 ([6]; cFib assay): > 20 µM |
| COC(=O)Nc1nc2ccc(C(=O)c3ccccc3)cc2[nH]1 [Mebendazole, reference compound] | < 4.70 |  |  |  | 1 |  | > 20 | 2 | 5.22 | 72 | 6 | 5.22 | 6.70 | 6.70 | 0.2 | 57 | Q2 | > 50 | Q2 | Q2 | IC50 ([2]; Table 3, read-out: LPS IC50 (uM) (Suppl. Table 7)): 6 µM; Fibrin Selectivity [4]: 31; Fibrin Selectivity (LOG10) [4]: 1.49; IC50 ([4]; Table 3, read-out: Fibrin IC50 (uM) (Suppl. Table 7)): 0.2 µM; inhibition at 10 µM ([5]; Microglia, Table 3, read-out: Cherry-picked Hit (Suppl. Table 7)): > 50%; Quadrant (FIG. 5b) ([5]; Table 3, screen at 10 μM): Q2 |
| COC(=O)C(c1ccccc1)C1CCCCN1 (centres unmarked) [Methylphenidate hydrochloride, reference compound] | < 4.70 |  |  |  | 2 |  |  | 1 | < 4.70 | 75 | > 20 | < 4.70 | < 4.70 | < 4.70 | > 20 | 81 | Q2 | > 50 | Q2 | Q2 | inhibition at 10 µM [5, 20]: > 50%; IC50 ([6]; cFib assay): > 20 µM |
| COc1ccc(O)cc1 [Mequinol, reference compound] | < 4.70 | < 4.70 | > 20 | > 20 | 2 | < 4.70 | > 20 | 1 |  |  |  |  |  |  |  |  |  |  |  |  | inhibition at 10 µM ([2]; 48 h): 76%; inhibition at 10 µM [4]: 98%; IC50 ([4]; read-out: Fibrin IC50 (uM)): > 20 µM; IC50 [4, 9]: > 20 µM; Quadrant (FIG. 5b) [5]: Q2; inhibition at 10 µM [5, 10]: > 50%; inhibition at 10 µM ([5]; Microglia, read-out: Hit): > 50% |
